This note sets out measurements from patent US12655151B2, “Ion channel modulators” (Praxis Precision Medicines, Inc., priority 2019, dated 2026).

The target in this experiment is T1, human NaV1.6 (hNaV1.6) (Homo sapiens, UniProt Q9UQD0).
T1 construct: expressed in transfected cells; host or cells: HEK-293 (G418 selection)
Briefly: Modulation of late sodium current (INaL) at hNaV1.6, PatchXpress electrophysiology. The class given is cell-based. The conditions noted are these: HEK293, HEK-293 cells expressing recombinant human NaV1.6, late current evoked by 300 nM ATX-II, read-out: NaV 1.6 Assay Data (percent inhibition of INaL at hNaV1.6). Here is the method:
Functional characterization of exemplary compounds to modulate INaL expressed by the NaV1.6 voltage-gated sodium channel was accomplished using the PatchXpress™ high throughput electrophysiology platform (Molecular Devices, Sunnyvale, CA). HEK-293 cells expressing recombinant, human NaV1.6 (hNaV1.6) were grown in DMEM/high-glucose Dulbecco's modified, 10% FBS, 2 mM sodium pyruvate, 10 mM HEPES and 400 μg/mL G418. Cells were grown to 50%-80% confluency prior to harvesting. Trypsinized cells were washed, allowed to recover for 1 hour and then resuspended in extracellular recording solution at a concentration of 1×10^6 cells/ml. The onboard liquid handling facility of the PatchXpress was used for dispensing cells and applying test compounds. NaV late currents were evoked by the application of 300 nM ATX-II. INaL was evoked by depolarizing pulses to 0 mV for 200 ms from a non-inactivating holding potential (e.g., −120 mV) at a frequency of 0.1 Hz. INaL amplitude and stability were determined by analyzing the mean current amplitude over the final 20 ms of the test pulse. Following steady state block with exemplary compounds (e.g., as described herein), a Na+ free solution containing an impermeant cation (e.g., Choline or NDMG) was added to confirm the identity of the sodium current. Percent steady-state inhibition of INaL was calculated as: […], where INaL_compound and INaL_control represent INaL recorded in the presence or absence of compound, respectively.
Results from this assay relating to percent inhibition of INaL at hNaV1.6 (measured using a procedure similar to described above but using HEK-293 cells expressing recombinant, human NaV 1.6 (h NaV 1.6) at 1 μM are summarized in Table 1 below. In this table, “A” indicates inhibition of less than 30%; “B” indicates inhibition of between about 30% to about 70%; and “C” indicates inhibition of greater than 70%. “N/A” indicates not available.

T1 sequence (Q9UQD0 whole entry): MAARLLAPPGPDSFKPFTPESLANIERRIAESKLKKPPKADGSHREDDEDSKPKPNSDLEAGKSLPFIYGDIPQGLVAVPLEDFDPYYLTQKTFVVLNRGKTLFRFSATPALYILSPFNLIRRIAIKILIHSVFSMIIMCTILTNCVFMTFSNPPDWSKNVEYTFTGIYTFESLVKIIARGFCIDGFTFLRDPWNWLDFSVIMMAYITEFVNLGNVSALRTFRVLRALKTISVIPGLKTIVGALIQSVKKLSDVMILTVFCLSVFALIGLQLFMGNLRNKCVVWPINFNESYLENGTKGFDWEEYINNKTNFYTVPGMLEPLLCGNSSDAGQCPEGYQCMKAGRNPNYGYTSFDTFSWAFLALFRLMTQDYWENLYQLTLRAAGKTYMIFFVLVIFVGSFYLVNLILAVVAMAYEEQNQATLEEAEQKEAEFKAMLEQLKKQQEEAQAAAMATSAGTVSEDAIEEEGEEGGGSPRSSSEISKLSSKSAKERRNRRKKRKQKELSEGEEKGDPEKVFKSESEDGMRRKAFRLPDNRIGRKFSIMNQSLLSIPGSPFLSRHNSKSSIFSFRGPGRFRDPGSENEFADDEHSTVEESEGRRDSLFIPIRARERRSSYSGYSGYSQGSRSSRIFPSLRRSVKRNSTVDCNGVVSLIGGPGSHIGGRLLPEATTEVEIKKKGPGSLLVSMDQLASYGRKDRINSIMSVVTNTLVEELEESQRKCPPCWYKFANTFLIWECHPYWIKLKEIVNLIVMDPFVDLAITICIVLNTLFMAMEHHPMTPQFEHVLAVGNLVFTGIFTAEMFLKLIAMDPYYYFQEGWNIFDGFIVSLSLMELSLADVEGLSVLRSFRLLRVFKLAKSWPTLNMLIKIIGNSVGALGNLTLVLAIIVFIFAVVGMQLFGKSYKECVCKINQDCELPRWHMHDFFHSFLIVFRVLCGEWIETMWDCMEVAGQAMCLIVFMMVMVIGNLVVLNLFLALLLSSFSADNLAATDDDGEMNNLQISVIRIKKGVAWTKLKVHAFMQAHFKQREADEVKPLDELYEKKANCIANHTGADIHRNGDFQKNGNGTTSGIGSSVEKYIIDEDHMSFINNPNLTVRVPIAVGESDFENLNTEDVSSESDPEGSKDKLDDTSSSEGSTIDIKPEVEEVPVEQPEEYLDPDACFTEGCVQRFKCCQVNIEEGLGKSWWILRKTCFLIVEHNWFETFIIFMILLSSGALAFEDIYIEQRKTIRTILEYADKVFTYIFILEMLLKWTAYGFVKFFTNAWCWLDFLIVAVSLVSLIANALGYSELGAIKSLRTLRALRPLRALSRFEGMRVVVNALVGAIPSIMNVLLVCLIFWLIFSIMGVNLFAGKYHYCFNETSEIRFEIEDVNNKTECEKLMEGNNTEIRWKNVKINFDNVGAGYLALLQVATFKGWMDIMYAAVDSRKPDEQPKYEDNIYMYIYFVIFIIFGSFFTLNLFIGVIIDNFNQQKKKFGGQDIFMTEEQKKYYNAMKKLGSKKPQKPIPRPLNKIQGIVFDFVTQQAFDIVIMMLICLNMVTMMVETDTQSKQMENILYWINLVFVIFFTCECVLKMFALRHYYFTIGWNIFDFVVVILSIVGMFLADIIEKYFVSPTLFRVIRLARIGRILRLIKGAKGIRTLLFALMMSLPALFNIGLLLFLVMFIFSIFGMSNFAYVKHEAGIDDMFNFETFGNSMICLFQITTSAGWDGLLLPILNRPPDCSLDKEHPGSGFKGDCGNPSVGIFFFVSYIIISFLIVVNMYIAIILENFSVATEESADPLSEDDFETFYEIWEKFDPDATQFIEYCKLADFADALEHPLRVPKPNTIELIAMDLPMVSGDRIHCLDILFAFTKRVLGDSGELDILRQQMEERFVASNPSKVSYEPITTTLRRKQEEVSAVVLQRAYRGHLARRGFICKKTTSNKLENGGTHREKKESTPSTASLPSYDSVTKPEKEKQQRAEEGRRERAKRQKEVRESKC

Turning to `COC(F)(F)c1nnc2cnc(-c3ccc(O[C@H](C4CC4)C(F)(F)F)nc3)cn12` (single isomer, unassigned) [Compound 5], the inhibition at 1 µM is more than 70%.

On to `COC(F)(F)c1nnc2cnc(-c3ccc(O[C@@H](C4CC4)C(F)(F)F)nc3)cn12` (single isomer, unassigned) [Compound 6], for which the inhibition at 1 µM is more than 70%.

For `COC(F)(F)c1nnc2cnc(-c3ccc(O[C@H](C)C(F)F)nc3)cn12` (single isomer, unassigned) [Compound 9], the inhibition at 1 µM was more than 70%.

As to `COC(F)(F)c1nnc2cnc(-c3ccc(O[C@@H](C)C(F)F)nc3)cn12` (single isomer, unassigned) [Compound 10], the inhibition at 1 µM is more than 70%.

Take `CC[C@@H](Oc1ccc(-c2cn3c(C(F)(F)OC)nnc3cn2)cn1)C(F)(F)F` (single isomer, unassigned) [Compound 13]: the inhibition at 1 µM was more than 70%.

With `CC[C@H](Oc1ccc(-c2cn3c(C(F)(F)OC)nnc3cn2)cn1)C(F)(F)F` (single isomer, unassigned) [Compound 14], the inhibition at 1 µM is more than 70%.

`COC(F)(F)c1nnc2cnc(-c3ccc(O[C@H](C)C(C)(F)F)nc3)cn12` (single isomer, unassigned) [Compound 15]: the inhibition at 1 µM was more than 70%.

With `COC(F)(F)c1nnc2cnc(-c3ccc(O[C@@H](C)C(C)(F)F)nc3)cn12` (single isomer, unassigned) [Compound 16], the inhibition at 1 µM lay within 30 to 70%.

For the molecule `CCOC(F)(F)c1nnc2cnc(-c3ccc(O[C@H](CC)C(F)(F)F)nc3)cn12` (single isomer, unassigned) [Compound 19], the inhibition at 1 µM was more than 70%.

Turning to `CCOC(F)(F)c1nnc2cnc(-c3ccc(O[C@@H](CC)C(F)(F)F)nc3)cn12` (single isomer, unassigned) [Compound 20], the inhibition at 1 µM was more than 70%.

`CCOC(F)(F)c1nnc2cnc(-c3ccc(O[C@H](C)C(F)F)nc3)cn12` (single isomer, unassigned) [Compound 23]: the inhibition at 1 µM is more than 70%.

In the case of `CCOC(F)(F)c1nnc2cnc(-c3ccc(O[C@@H](C)C(F)F)nc3)cn12` (single isomer, unassigned) [Compound 24], the inhibition at 1 µM is more than 70%.

As to `CCOC(F)(F)c1nnc2cnc(-c3ccc(O[C@H](C(C)C)C(F)(F)F)nc3)cn12` (single isomer, unassigned) [Compound 25], the inhibition at 1 µM is more than 70%.

Consider `CCOC(F)(F)c1nnc2cnc(-c3ccc(O[C@@H](C(C)C)C(F)(F)F)nc3)cn12` (single isomer, unassigned) [Compound 26], for which the inhibition at 1 µM fell in the range of 30 to 70%.

Take `COC(F)(F)c1nnc2cnc(-c3ccc(O[C@@H](C(C)C)C(F)(F)F)nc3)cn12` (single isomer, unassigned) [Compound 27]: the inhibition at 1 µM was more than 70%.

As for `COC(F)(F)c1nnc2cnc(-c3ccc(O[C@H](C(C)C)C(F)(F)F)nc3)cn12` (single isomer, unassigned) [Compound 28], the inhibition at 1 µM is more than 70%.

For the molecule `CCOC(F)(F)c1nnc2cnc(-c3ccc(O[C@H](C4CC4)C(F)(F)F)nc3)cn12` (single isomer, unassigned) [Compound 29], the inhibition at 1 µM was more than 70%.

In the case of `CCOC(F)(F)c1nnc2cnc(-c3ccc(O[C@@H](C4CC4)C(F)(F)F)nc3)cn12` (single isomer, unassigned) [Compound 30], the inhibition at 1 µM was more than 70%.

With `C[C@@H](Oc1ccc(-c2cn3c(C(F)(F)OC4CC4)nnc3cn2)cn1)C(F)(F)F` [Compound 1, (R)-3-(cyclopropoxydifluoromethyl)-6-(6-((1,1,1-trifluoropropan-2-yl)oxy)pyridin-3-yl)-[1,2,4]triazolo[4,3-a]pyrazine], the inhibition at 1 µM is more than 70%.

Turning to `C[C@H](Oc1ccc(-c2cn3c(C(F)(F)OC4CC4)nnc3cn2)cn1)C(F)(F)F` [Compound 2, (S)-3-(cyclopropoxydifluoromethyl)-6-(6-((1,1,1-trifluoropropan-2-yl)oxy)pyridine-3-yl)-[1,2,4]triazolo[4,3-a]pyrazine], the inhibition at 1 µM was more than 70%.

As to `CCOC(F)(F)c1nnc2cnc(-c3ccc(O[C@@H](C)C(F)(F)F)nc3)cn12` [Compound 3, (S)-3-(ethoxydifluoromethyl)-6-(6-((1,1,1-trifluoropropan-2-yl)oxy)pyridin-3-yl)-[1,2,4]triazolo[4,3-a]pyrazine], the inhibition at 1 µM was more than 70%.

For the molecule `CCOC(F)(F)c1nnc2cnc(-c3ccc(OC(C4CC4)C(F)(F)F)nc3)cn12` (stereo not drawn) [Compound 4, 6-(6-(1-cyclopropyl-2,2,2-trifluoroethoxy)pyridin-3-yl)-3-(ethoxydifluoromethyl)-[1,2,4]triazolo[4,3-a]pyrazine], the inhibition at 1 µM is more than 70%.

On to `COC(F)(F)c1nnc2cnc(-c3ccc(OC(C(C)C)C(F)(F)F)nc3)cn12` (stereo not drawn) [Compound 7, 3-(difluoro(methoxy)methyl)-6-(6-((1,1,1-trifluoro-3-methylbutan-2-yl)oxy)pyridin-3-yl)-[1,2,4]triazolo[4,3-a]pyrazine], for which the inhibition at 1 µM was more than 70%.

Turning to `CCCOC(F)(F)c1nnc2cnc(-c3ccc(OCC(F)(F)F)nc3)cn12` [Compound 8, 3-[difluoro(propoxy)methyl]-6-[6-(2,2,2-trifluoroethoxy)-3-pyridyl]-[1,2,4]triazolo[4,3-a]pyrazine], the inhibition at 1 µM was more than 70%.

On to `CC(C)OC(F)(F)c1nnc2cnc(-c3ccc(OCC(F)(F)F)nc3)cn12` [Compound 11, 3-[difluoro(isopropoxy)methyl]-6-[6-(2,2,2-trifluoroethoxy)-3-pyridyl]-[1,2,4]triazolo[4,3-a]pyrazine], for which the inhibition at 1 µM is more than 70%.

As to `COC(F)(F)c1nnc2cnc(-c3ccc(OC4CC(F)(F)C4(F)F)nc3)cn12` (stereo not drawn) [Compound 12, 3-(difluoro(methoxy)methyl)-6-(6-(2,2,3,3-tetrafluorocyclobutoxy)pyridin-3-yl)-[1,2,4]triazolo[4,3-a]pyrazine], the inhibition at 1 µM is more than 70%.

Turning to `CCCOC(F)(F)c1nnc2cnc(-c3ccc(O[C@H](C)C(F)(F)F)nc3)cn12` [Compound 17, 3-[difluoro(propoxy)methyl]-6-[6-[(1R)-2,2,2-trifluoro-1-methyl-ethoxy]-3-pyridyl]-[1,2,4]triazolo[4,3-a]pyrazine], the inhibition at 1 µM is more than 70%.

With `CC(C)OC(F)(F)c1nnc2cnc(-c3ccc(O[C@H](C)C(F)(F)F)nc3)cn12` [Compound 18, 3-[difluoro(isopropoxy)methyl]-6-[6-[(1R)-2,2,2-trifluoro-1-methyl-ethoxy]-3-pyridyl]-[1,2,4]triazolo[4,3-a]pyrazine], the inhibition at 1 µM was more than 70%.

Take `CCCOC(F)(F)c1nnc2cnc(-c3ccc(O[C@@H](C)C(F)(F)F)nc3)cn12` [Compound 21, (S)-3-(difluoro(propoxy)methyl)-6-(6-((1,1,1-trifluoropropan-2-yl)oxy)pyridin-3-yl)-[1,2,4]triazolo[4,3-a]pyrazine]: the inhibition at 1 µM is more than 70%.

On to `CC(C)OC(F)(F)c1nnc2cnc(-c3ccc(O[C@@H](C)C(F)(F)F)nc3)cn12` [Compound 22, (S)-3-(difluoro(isopropoxy)methyl)-6-(6-((1,1,1-trifluoropropan-2-yl)oxy)pyridin-3-yl)-[1,2,4]triazolo[4,3-a]pyrazine], for which the inhibition at 1 µM is more than 70%.
